One assay has as its system skin fibroblasts. Kind of assay: β-galactosidase staining of UVB-induced cell aging. Type of assay: cell-based. The note with it: UVB of 12 mJ/cm^2; pretreated at 1 µM for 24 hours. The protocol: β-galactosidase is used to induce cellular aging of fibroblasts, which are the main cells of the epidermal layer of skin, by using UVB, the most important environmental factor in skin aging, as the most common marker for cell aging and β-galactosidase staining was performed to analyze the cell aging protection of Compound 32u. […]

A further assay addresses T1, SIRT 1 (Homo sapiens, UniProt Q96EB6).
T1 sequence (Q96EB6 1-747): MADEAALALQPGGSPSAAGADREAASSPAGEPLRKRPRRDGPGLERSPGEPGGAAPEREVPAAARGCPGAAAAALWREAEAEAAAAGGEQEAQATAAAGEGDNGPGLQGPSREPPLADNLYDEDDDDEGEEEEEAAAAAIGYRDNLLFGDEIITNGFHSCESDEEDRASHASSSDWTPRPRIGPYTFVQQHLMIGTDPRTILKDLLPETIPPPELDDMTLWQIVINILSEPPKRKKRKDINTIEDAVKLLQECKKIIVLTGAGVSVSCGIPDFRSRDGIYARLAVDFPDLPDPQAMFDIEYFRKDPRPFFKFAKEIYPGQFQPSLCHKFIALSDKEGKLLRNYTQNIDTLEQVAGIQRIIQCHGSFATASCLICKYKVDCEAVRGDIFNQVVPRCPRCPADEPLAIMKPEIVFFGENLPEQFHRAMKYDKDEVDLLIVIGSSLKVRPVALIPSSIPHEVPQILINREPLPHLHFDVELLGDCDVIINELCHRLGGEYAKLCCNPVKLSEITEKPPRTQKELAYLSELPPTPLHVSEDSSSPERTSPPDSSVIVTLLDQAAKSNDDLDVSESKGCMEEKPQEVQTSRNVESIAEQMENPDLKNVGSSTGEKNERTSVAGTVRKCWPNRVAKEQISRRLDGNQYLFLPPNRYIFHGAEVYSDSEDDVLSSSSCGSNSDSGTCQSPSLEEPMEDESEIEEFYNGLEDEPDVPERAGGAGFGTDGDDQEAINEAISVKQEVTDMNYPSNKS
Kind of assay: SIRT 1 fluorometric drug discovery kit (AK-555, Biomol), deacetylation of Fluor de Lys-SIRT 1 substrate. Type of assay: biochemical. The conditions noted are these: 100 µM candidate vs 100 µM resveratrol positive control; 25 µM Fluor de Lys-Sirt1, 25 µM NAD+. The protocol: SIRT 1 activity of candidate SIRT 1 activator compounds synthesized based on the benzo[d]furan backbone were measured using a SIRT 1 fluorometric drug discovery kit (AK-555, Biomol). Briefly, as the substrate for analysis, 0.2 U/L of Fluor de Lys-SIRT 1 substrate developer mixture is used, which is amino acid 379382 of human […] AC), and SIRT 1 incubated with cosubstrate NAD^+. The degree of initial deacetylation of SIRT 1 for 100 μM candidate was measured using 100 μM resveratrol as a positive control in 25 μM Fluor de Lys-Sirt1 and 25 μM NAD^+ environments. The reaction was stopped using Fluor de LysTM Developer II/2 mM nicotinamide, followed by measuring fluorescence (Excitation: 360 nm, Emission: 460 nm). The SIRT 1 activity for candidate SIRT 1 activator compounds synthesized based on the benzo[d]oxazole backbone were measured using SIRT 1 fluorometric drug discovery kit (AK-555, Biomol). Briefly, 0.2 U/L of Fluor de Lys-SIRT 1 substrate developer mixture liquid was used as the analytical substrate, meaning amino acid 379382 of human […] […] The initial degree of deacetylation of SIRT 1 for 100 μM candidate was measured using 100 μM resveratrol as a positive control in 25 μM Fluor de Lys-Sirt1 and 25 μM NAD+. The reaction was stopped using Fluor de LysTM Developer II/2 mM nicotinamide, followed by fluorescence (Excitation: 360 nm, Emission: 460 nm).

For assay [1], the system named is db/db mice. Nature of the assay: Glucose tolerance test and fasting blood glucose in obese animal model. In kind it is in vivo, mouse. The note with it: for fasting blood glucose: oral 5 mg/kg daily, compared to db/db mouse group; for glucose tolerance (blood glucose concentration): three weeks after oral administration of 5 mg/kg daily, glucose 2 g/kg intraperitoneally after 12 hours fasting. The protocol:
The metabolic disease control ability of Compound 32u was analyzed using db/db mice lacking an appetite-regulating hormone leptin receptor as an obese animal model. Compound 32u was orally administered to db/db mice (9 weeks old) at a concentration of 5 mg/kg daily for 4 weeks. Three weeks after oral administration of Compound 32u, a glucose tolerance test was performed. Mice were fasted for 12 hours or more, and glucose (2 g/kg) was injected intraperitoneally, and blood from the tail of the mouse was measured for blood glucose at each time using a glucometer ([…]). The metabolic disease control ability of Compound 70c was analyzed using db/db mice lacking an appetite-regulating hormone leptin receptor as an obese animal model. Compound 70c was orally administered to db/db mice (9 weeks old) at a concentration of 5 mg/kg daily for 4 weeks. Three weeks after oral administration of Compound 70c, a glucose tolerance test was performed. Mice were fasted for 12 hours or more, and glucose (2 g/kg) was injected intraperitoneally, and blood from the tail of the mouse was measured for blood glucose at each time using a glucometer ([…]).

In assay [2] the test system is db/db mice. Kind of assay: Neutral fat in the liver (fatty liver) in obese animal model. The conditions noted are these: oral 5 mg/kg daily for 4 weeks. In kind it is in vivo, mouse. The protocol: Since obesity and insulin resistance are representative diseases directly related to the development of non-alcoholic fatty liver, the improvement effect of Compound 32u on fatty liver was analyzed. Compound 32u was orally administered to db/db mice (9 weeks old) at a concentration of 5 mg/kg daily for 4 weeks. First, the accumulation of fat in the liver, the most representative phenotype, was measured. Briefly, about 50 mg of liver was quantified in cold phosphate buffered saline (PBS) or 0.9% sodium chloride (NaCl) and crushed, followed by treating with mixed solvent of chloroform and methanol (MeOH) in a volume ratio of 2:1 and reacted for 2 hours. […] Thereafter, the amount of neutral fat was measured by absorbance using a neutral fat measurement kit (Stanbio laboratory, TX USA). Since obesity and insulin resistance are representative diseases directly related to the development of non-alcoholic fatty liver, the improvement effect of Compound 70c on fatty liver was analyzed. […] First, the accumulation of fat in the liver, the most representative phenotype, was measured. Briefly, about 50 mg of liver was quantified in cold phosphate buffered saline (PBS) or 0.9% sodium chloride (NaCl) and crushed, followed by treating with mixed solvent of chloroform and methanol (MeOH) in a volume ratio of 2:1 and reacted for 2 hours. […]

Consider two molecules from patent EP3613735A1, “NOVEL SIRT 1 ACTIVATOR AND MEDICINAL USE THEREOF” (Pusan National University Industry - University Cooperation …, priority 2017, dated 2018).

For `Cl.O=C(Nc1ccccc1-c1cc2ccc(CN3CCNCC3)cc2o1)c1ccc2ccccc2c1` [Compound 32u, N-(2-(6-(Piperazin-1-ylmethyl)benzofuran-2-yl)phenyl)-2-naphthamide hydrochloride], in the assay with skin fibroblasts, the β-galactosidase staining result is recorded as “reduced”. In addition, the “SIRT 1 activity” value on SIRT 1 was “higher SIRT 1 activity effect than resveratrol”. For the same molecule, in the assay on db/db mice [1], the fasting blood glucose entry was “reduced” and the “glucose tolerance (blood glucose concentration)” value was “glucose tolerance was restored”. Moreover, in the assay with db/db mice [2], the “neutral fat in the liver” value is recorded as “reduced neutral fat”.
As for `O=C(Nc1ccccc1-c1nc2cc(CN3CCN(C4CCCCC4)CC3)ccc2o1)c1ccc2ccccc2c1` [Compound 70c, N-(2-(5-((4-Cyclohexylpiperazin-1-yl)methyl)benzo[d]oxazol-2-yl)phenyl)-2-naphthamide], the β-galactosidase staining result in the assay with skin fibroblasts was “reduced”. Also, the “SIRT 1 activity” value at SIRT 1 was “higher SIRT 1 activity effect than resveratrol”. Also, in the assay with db/db mice [1], the fasting blood glucose result is “reduced” and the “glucose tolerance (blood glucose concentration)” value was “glucose tolerance was restored”. Also, in the assay on db/db mice [2], the “neutral fat in the liver” value is given as “reduced neutral fat”.
